Test results from patent publication US11479604B2, “Immunomodulatory peptides and methods for modulating the immune system in a subject” (Recepta Biopharma S.A., priority 2017, dated 2022).

Key:
[1] = test system: B16F10-Nex2 tumor cells; assay: Metastatic melanoma model in immunodeficient mice; type: in vivo, NOD/Scid/IL-2R-gamma^null mice; conditions: 250 μg i.p. on days 1-11, lungs on day 22
Protocol: B16F10-Nex2 tumor cells (2×10^5) in RPMI (100 μl) were injected in both animal groups in the tail veins on day 0. Animals were sacrificed on day 22, or 10 days after the last administration of the peptide, and their lungs were examined for dark melanotic nodules.

[2] = test system: pancreas carcinoma Panc02; assay: Subcutaneous syngeneic pancreatic carcinoma model; type: in vivo, C57BL6 mice; conditions: 300 μg i.p., 5 doses every other day
Protocol: Male C57BL/6 mice, 6 to 8-week-old were obtained from the Center for Development of Experimental Models (CEDEME), Federal University of Sao Paulo (UNIFESP). For the in vivo metastatic model, C57BL/6 mice received one intravenous (i.v.) injection of 2×10^5 viable B16-F10-Next melanoma cells in 100 μL. […] The control group received 100 μL PBS. Twenty-two days later, mice (minimum n=3 per group) had their lungs harvested, and the number of macroscopic melanotic nodules were counted. The Ethical Committee of Federal University of São Paulo, Project no. 1234, 2011, approved all experiments with animals, according to International guidelines. For the subcutaneous model, mice were injected with 5×10^5 tumor cells suspended in 100 μL of PBS in the right flank via the subcutaneous route. The peptide (300 μg) was solubilized in 10 μL of distilled H2O and 90 μL of PBS and injected per mouse via the intraperitoneal route. The administration of the peptide was performed in 5 alternate days initiating one day after tumor challenge. Tumor longitudinal diameter (D) and transverse diameter (d) were measured every 2 days until the tumor volume reached 3,000 mm3. Animals were sacrificed when the allowed volume was reached. Volume was calculated using the formula v=Dd^2×0.52. […]

[3] = test system: bone marrow derived dendritic cells; assay: CD74 receptor expression in myeloid dendritic cells; type: cell-based, mouse; conditions: murine dendritic cells
Protocol: After incubation the cells were stimulated with or without LPS (Sigma-Aldrich, Missouri, USA), at 200 ng/ml or tumor lysate (B16F10-Next cells) in the proportion of 30 DCs to 1 tumor cell, for 24 h. After incubation, the cells were harvested and stained with anti-CD74 (BV786) from BD Bioscience. Stained cells were acquired using LSRFortessa™ (Becton Dickinson, San Jose, Calif., USA) and data analysis was performed using the FlowJo V10 (TreeStar Inc., Ashland, Oreg., USA). The results are represented as percentage of CD74^+ cells in CD11b^+CD11c^+ or CD11c^+MHCII^+ population.
Protein lysates were separated by electrophoresis, and immunoblotting analyses were performed for: total AKT, total p44/42 MAPK (ERK1/2), total IKKα, total IkBα, total NF-kB p65, phospho-AKT (Ser473), phospho-ERK1/2 (Thr202/Tyr204), phospho-IKKα/β (Ser176/180), phospho-IkBα (Ser32) and phospho-NFkB p65 (Ser536). GAPDH was assayed for loading control. HRP-conjugated secondary antibodies were used, followed by incubation with the ECL substrate (Millipore, Billerica, Mass.). All primary and secondary antibodies were purchased from Cell Signaling Technologies (Beverly, Mass., USA). Anti-CD74 receptor was also assayed (Abcam, Cambridge, UK). Phosphorylation ratios were quantified using ImageJ software. Results are represented in arbitrary units normalized to untreated control lanes.

[4] = test system: mo-DC obtained from cancer patients' monocytes; assay: Surface phenotype of mo-DC from cancer patients; type: cell-based, human
Protocol: Peripheral blood mononuclear cells (PBMCs) were isolated by centrifugation over Ficoll-Paque Plus (GE Healthcare). After a 2 h-incubation in plastic 6-well plates, non-adherent cells were removed from culture and adherent cells (monocytes) were cultivated for 7 days in RPMI-1640 culture medium (Gibco, Grand Island, N.Y., USA), supplemented with 10% FCS (Gibco) plus antibiotic-antimycotic (Gibco) and in the presence of GM-CSF (50 ng/ml—Peprotech, Mexico) and IL-4 (50 ng/ml—Peprotech). At day 5 of culture TNF-α (50 ng/ml; Peprotech, Mexico) was added for mo-DC maturation.
Human cells were analyzed in a similar manner, but staining was performed in BSA-PBS, without EDTA. Antibodies against CD11c, CD14, CD80, CD83, CD86, HLA-ABC, HLA-DR, CCR7, PD-L1, conjugated with different fluorochromes and live/dead labeling (Molecular Probes, Oregon, USA) were used. Acquisition was performed in a FACSCanto II analyzer (BD Biosciences) and analyzed with the FlowJo Software X.10.07r2 (Tree Star).
Since it is well known that mo-DC from cancer patients can be functionally biased, but are not always so, the patients were separated into two groups, according to their mo-DC ability to induce allogeneic T cell proliferation. Patients whose mo-DC induced less than 35% of the phytohemagglutinin A (PHA)-induced response constituted one group (“defective”) and those whose mo-DC induced a response higher than 35% of the PHA response, the other (“normal”).

[5] = test system: B16F10-Nex2 melanoma cells; conditions: as determined in U.S. Pat. No. 9,193,797 B2; cited from earlier work

In the case of [CARGETARATFAYWGQGC], NH2 (C-C) [Rb9], the “protection against lung nodules” value [1] was “No protection”, the “deaths up to the 40th day” value [2] was “no deaths were recorded” and the s.c. tumor growth [2] was “significantly delayed”. For the same substance, the “expression of CD74 in CD11b+CD11c+ and CD11c+MHC-II+ cells” value [3] was “increased expression”, the “effects on surface phenotype of cancer patients' mo-DC” value ([4]; all patients) was “heterogeneous” and the “effect on phenotype (differentiation, maturation) of "defective" mo-DC” value ([4]; patients whose mo-DC induced less than 35% of the PHA-induced response) was “clearly affected the phenotype”. The “effect on phenotype of "normal" mo-DC” value ([4]; patients whose mo-DC induced more than 35% of the PHA response) was “little effect” and the “in vivo protection against metastatic melanoma by CDRs of RebMab200” value [5] was “displayed this in vivo protection”.
